The record followed here is US9550772B2, “Azaindole derivatives as multi kinase inhibitors” (ORIBASE PHARMA, priority 2012, dated 2017).

One may read the EC50 as the concentration at which the effect is half-maximal. By inhibition is commonly meant how much of the control response was suppressed.

Assay [1] has as its system HepG2 cell line. Kind of assay: In vitro cell proliferation assay (MTT). The class given is cell-based. The note with it: Homo sapiens, HepG2, 72 hr, 100 nM < EC50 < 1 μM, read-out: EC50, anti-proliferative activity. In outline: (§1)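 MTT read-out after 72 hr compound exposure, 10 nM–3 μM, duplicate wells. Seeding: 5×10^3 cells/well for cancer lines, 1×10^4 cells/well for HRMEC. EC50 from sigmoidal curve fit; DMSO = 0%, 1% SDS = 100%.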

In assay [2] the test system is HT29 cell line. The experiment in a line: In vitro cell proliferation assay (MTT). In kind it is cell-based. The note with it: Homo sapiens, HT-29, HT29, 72 hr, EC50 ≧ 1 μM, read-out: EC50, anti-proliferative activity. In outline:
as §1

The subject of assay [3] is HRMEC cells. Kind of assay: In vitro cell proliferation assay (MTT). The class given is cell-based. The settings on record: 72 hr, 100 nM < EC50 < 1 μM, read-out: EC50, anti-proliferative activity. In outline: as §1
Assay [4] has as its system A549 cell line. The experiment in a line: In vitro cell proliferation assay (MTT). The settings on record: Homo sapiens, A549, 72 h, EC50 ≦ 100 nM, read-out: EC50, anti-proliferative activity. In kind it is cell-based. In outline:
as §1

The subject of assay [5] is MDA-MB-231 cell line. The experiment in a line: In vitro cell proliferation assay (MTT). In kind it is cell-based. The settings on record: Homo sapiens, MDA-MB-231, 72 hr, 100 nM < EC50 < 1 μM, read-out: EC50, anti-proliferative activity. In outline: as §1
Assay [6] concerns HUVEC cells. Kind of assay: In vitro cell proliferation assay (MTT). The class given is cell-based. The settings on record: Homo sapiens, 72 hr, 100 nM < EC50 < 1 μM, read-out: EC50, anti-proliferative activity. In outline: as §1
For assay [7], the system named is HuH7 cell line. The experiment in a line: In vitro cell proliferation assay (MTT). The class given is cell-based. The settings on record: Homo sapiens, Huh-7, HuH7, 72 hr, 100 nM < EC50 < 1 μM, read-out: EC50, anti-proliferative activity. In short, it runs like this:
as §1

Assay [8] relates to H1975 cell line. The experiment in a line: In vitro cell proliferation assay (MTT). In kind it is cell-based. The note with it: Homo sapiens, NCI-H1975, H1975, 72 hr, EC50 ≧ 1 μM, read-out: EC50, anti-proliferative activity. In short, it runs like this: as §1
The test system of assay [9] is HeLa cell line. Kind of assay: In vitro cell proliferation assay (MTT). In kind it is cell-based. The note with it: Homo sapiens, 72 hr, 100 nM < EC50 < 1 μM, read-out: EC50, anti-proliferative activity. In outline:
as §1

Assay [10] has as its target T1, FGFR2 (Homo sapiens, UniProt P21802).
T1 construct: purchased Invitrogen
Kind of assay: In vitro kinase assay (Z'-LYTE, Invitrogen). In kind it is biochemical. The note with it: compound at 100 nM, ATP Km apparent, read-out: % of inhibition of the kinase compared to the control. In outline: (§2)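 Compounds were tested at 100 nM in 1% DMSO final against each kinase with its peptide substrate, ATP at apparent Km, in 50 mM HEPES pH 7.5 with 10 mM MgCl2, 1 mM EGTA, 0.01% BRIJ-35. Phosphorylation was quantified by Z′-LYTE coupled protease/FRET emission ratio.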

Assay [11] deals with T2, EGFR (ErbB1) (Homo sapiens, UniProt P00533).
T2 construct: purchased Invitrogen
Kind of assay: In vitro kinase assay (Z'-LYTE, Invitrogen). In kind it is biochemical. The note with it: compound at 100 nM, ATP Km apparent, read-out: % of inhibition of the kinase compared to the control. In outline:
as §2

In assay [12] the target is T3, SRC (Homo sapiens, UniProt P12931).
T3 construct: purchased Invitrogen
Kind of assay: In vitro kinase assay (Z'-LYTE, Invitrogen). In kind it is biochemical. The note with it: compound at 100 nM, ATP Km apparent, read-out: % of inhibition of the kinase compared to the control. In short, it runs like this: as §2

Assay [13] has as its target T4, PDGFRA (PDGFR alpha) (Homo sapiens, UniProt P16234).
T4 construct: purchased Invitrogen
The experiment in a line: In vitro kinase assay (Z'-LYTE, Invitrogen). In kind it is biochemical. The note with it: compound at 100 nM, ATP Km apparent, read-out: % of inhibition of the kinase compared to the control. In outline:
as §2

For assay [14], the target named is T5, KDR (VEGFR2) (Homo sapiens, UniProt P35968).
T5 construct: purchased Invitrogen
Kind of assay: In vitro kinase assay (Z'-LYTE, Invitrogen). The class given is biochemical. The note with it: compound at 100 nM, ATP Km apparent, read-out: % of inhibition of the kinase compared to the control. In outline: as §2

For assay [15], the target named is T6, BRAF (Homo sapiens, UniProt P15056).
T6 construct: purchased Invitrogen
The experiment in a line: In vitro kinase assay (Z'-LYTE, Invitrogen). The class given is biochemical. The note with it: compound at 100 nM, ATP Km apparent, read-out: % of inhibition of the kinase compared to the control. In short, it runs like this:
as §2

Molecules are shown by their SMILES. Where only a bound is given, the exact number is not on record here.

T4 sequence (P16234 24-1089): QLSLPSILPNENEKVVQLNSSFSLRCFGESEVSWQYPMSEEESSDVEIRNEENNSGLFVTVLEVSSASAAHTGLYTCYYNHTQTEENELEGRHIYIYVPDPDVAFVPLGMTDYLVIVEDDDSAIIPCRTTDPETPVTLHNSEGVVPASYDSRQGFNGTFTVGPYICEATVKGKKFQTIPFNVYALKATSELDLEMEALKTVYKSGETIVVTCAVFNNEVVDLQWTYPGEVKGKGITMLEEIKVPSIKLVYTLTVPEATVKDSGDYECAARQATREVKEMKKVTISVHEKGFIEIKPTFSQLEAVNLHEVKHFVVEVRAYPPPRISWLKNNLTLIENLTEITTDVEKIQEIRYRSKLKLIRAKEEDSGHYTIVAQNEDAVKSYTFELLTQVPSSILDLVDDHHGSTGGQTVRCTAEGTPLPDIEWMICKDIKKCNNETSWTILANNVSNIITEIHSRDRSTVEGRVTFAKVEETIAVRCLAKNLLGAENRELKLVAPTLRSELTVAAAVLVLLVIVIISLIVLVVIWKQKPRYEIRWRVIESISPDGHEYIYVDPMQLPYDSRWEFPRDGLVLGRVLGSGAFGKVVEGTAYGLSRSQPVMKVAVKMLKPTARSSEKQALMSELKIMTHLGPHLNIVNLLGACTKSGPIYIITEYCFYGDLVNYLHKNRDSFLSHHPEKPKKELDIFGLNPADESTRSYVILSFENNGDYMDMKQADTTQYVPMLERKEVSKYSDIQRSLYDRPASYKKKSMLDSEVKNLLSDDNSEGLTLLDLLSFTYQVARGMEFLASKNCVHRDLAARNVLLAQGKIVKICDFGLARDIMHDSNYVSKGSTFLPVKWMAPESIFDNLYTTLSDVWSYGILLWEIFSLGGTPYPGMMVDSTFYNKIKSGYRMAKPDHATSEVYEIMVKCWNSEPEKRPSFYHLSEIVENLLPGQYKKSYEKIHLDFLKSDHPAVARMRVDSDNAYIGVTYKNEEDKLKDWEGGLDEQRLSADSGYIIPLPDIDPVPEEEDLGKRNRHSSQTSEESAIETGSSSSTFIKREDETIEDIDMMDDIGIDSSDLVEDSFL
T5 sequence (P35968 20-1356): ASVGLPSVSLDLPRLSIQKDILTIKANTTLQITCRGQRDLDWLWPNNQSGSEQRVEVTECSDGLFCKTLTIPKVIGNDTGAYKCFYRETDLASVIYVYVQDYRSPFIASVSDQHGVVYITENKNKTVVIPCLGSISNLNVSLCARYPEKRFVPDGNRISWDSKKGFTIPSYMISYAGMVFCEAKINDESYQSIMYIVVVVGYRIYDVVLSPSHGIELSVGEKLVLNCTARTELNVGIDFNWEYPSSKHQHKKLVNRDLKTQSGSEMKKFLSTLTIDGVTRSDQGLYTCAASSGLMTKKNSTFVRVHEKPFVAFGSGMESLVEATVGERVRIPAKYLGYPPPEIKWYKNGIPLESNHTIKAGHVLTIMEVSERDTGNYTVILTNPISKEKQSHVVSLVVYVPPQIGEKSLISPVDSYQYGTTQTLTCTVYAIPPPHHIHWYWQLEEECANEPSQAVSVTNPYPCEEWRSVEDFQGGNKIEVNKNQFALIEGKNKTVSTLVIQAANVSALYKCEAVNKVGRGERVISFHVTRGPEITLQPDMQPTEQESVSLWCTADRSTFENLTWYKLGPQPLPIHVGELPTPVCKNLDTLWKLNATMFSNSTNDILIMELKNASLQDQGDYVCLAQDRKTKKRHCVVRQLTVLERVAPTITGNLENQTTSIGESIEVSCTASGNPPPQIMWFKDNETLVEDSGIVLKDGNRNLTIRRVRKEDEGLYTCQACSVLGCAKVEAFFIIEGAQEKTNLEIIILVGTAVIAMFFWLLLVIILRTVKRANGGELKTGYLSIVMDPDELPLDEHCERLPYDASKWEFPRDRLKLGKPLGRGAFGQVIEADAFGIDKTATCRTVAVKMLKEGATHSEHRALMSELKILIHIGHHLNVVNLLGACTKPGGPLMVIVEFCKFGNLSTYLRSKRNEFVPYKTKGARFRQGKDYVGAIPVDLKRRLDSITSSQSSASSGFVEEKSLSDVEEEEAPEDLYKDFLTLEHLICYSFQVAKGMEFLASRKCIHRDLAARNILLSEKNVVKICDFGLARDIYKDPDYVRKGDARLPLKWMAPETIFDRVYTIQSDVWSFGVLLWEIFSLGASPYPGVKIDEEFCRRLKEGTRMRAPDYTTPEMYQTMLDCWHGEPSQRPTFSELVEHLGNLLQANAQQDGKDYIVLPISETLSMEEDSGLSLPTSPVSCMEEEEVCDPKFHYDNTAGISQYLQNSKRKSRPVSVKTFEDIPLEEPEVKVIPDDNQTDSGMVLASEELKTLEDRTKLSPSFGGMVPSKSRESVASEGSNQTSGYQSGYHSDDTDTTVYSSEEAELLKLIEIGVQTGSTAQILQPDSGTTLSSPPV
T1 sequence (P21802 22-821): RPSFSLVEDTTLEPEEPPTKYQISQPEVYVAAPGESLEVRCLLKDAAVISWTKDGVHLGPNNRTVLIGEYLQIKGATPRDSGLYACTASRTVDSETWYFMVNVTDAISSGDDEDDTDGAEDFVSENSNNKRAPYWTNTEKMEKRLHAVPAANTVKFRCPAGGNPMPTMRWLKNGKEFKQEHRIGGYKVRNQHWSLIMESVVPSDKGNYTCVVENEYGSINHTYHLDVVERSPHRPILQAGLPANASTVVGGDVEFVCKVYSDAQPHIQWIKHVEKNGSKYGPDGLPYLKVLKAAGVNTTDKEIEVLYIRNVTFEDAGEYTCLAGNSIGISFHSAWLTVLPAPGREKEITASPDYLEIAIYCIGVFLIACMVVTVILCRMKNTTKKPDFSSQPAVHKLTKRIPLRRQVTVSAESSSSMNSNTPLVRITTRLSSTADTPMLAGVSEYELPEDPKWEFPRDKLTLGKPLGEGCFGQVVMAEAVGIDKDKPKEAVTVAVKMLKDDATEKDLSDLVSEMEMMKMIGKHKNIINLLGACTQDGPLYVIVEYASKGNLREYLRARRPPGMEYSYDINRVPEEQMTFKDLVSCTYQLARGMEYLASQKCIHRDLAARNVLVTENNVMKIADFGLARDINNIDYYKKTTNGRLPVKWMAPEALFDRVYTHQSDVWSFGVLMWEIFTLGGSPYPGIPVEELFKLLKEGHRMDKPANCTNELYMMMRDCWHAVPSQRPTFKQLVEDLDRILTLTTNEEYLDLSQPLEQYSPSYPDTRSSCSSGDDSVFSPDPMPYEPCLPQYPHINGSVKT
T6 sequence (P15056 whole entry): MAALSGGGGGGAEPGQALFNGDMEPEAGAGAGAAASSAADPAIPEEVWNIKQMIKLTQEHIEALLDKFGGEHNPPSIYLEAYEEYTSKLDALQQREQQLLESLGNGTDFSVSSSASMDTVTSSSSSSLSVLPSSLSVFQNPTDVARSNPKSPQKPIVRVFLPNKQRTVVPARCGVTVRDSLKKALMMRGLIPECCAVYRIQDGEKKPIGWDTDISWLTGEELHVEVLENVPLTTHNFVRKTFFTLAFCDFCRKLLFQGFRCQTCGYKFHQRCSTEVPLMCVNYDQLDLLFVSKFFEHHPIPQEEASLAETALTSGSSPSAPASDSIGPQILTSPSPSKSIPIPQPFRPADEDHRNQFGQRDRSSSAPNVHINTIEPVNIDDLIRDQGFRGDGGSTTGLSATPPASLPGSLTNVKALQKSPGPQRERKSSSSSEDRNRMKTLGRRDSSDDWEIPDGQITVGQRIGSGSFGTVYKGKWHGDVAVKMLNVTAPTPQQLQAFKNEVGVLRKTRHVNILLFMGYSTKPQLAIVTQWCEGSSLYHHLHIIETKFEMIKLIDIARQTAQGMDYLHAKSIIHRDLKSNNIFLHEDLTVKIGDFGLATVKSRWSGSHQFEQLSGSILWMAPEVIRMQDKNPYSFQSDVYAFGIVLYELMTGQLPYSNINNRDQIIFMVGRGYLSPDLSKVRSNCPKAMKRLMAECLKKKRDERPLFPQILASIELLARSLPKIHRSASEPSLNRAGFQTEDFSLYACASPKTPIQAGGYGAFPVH
T3 sequence (P12931 whole entry): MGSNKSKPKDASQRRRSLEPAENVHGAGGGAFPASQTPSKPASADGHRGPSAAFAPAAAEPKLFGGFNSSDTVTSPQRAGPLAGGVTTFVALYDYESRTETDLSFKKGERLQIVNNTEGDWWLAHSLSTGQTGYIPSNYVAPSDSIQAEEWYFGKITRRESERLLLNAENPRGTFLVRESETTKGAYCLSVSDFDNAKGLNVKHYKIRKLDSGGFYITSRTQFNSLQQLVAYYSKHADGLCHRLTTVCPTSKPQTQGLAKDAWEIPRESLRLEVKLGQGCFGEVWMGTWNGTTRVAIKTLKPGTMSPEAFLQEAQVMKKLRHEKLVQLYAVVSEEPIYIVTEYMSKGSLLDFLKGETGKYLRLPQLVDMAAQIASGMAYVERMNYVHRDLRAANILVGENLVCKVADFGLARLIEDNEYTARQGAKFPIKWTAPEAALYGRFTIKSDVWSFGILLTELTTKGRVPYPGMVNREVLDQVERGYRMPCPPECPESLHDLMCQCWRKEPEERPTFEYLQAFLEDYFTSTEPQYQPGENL

With `CC(=O)c1cc2cc(CCc3cc(NC(=O)c4ccc(CN5CC[C@H](N(C)C)C5)c(C(F)(F)F)c4)ccc3C)cnc2[nH]1` [OR0812, N-{3-[2-(2-Acetyl-1H-pyrrolo[2,3-b]pyridin-5-yl)-ethyl]-4-methyl-phenyl}-4-((S)-3-dimethylamino-pyrrolidin-1-ylmethyl)-3-trifluoromethyl-benzamide], the EC50 in [1] was 100 to 1000 nM; in [2], at least 1000 nM; in [3], 100 to 1000 nM; in assay [4] it was at most 100 nM; in [5], 100 to 1000 nM; in [6], 100 to 1000 nM. Further, the EC50 in assay [7] was 100 to 1000 nM; in assay [8], at least 1000 nM; in assay [9] it was 100 to 1000 nM. The inhibition at 0.1 µM in assay [10], in [11], in assay [12], in [13], in [14] and in [15] was at least 50% in each case.
